The text below walks through data of US6670395B1, “Prophylactic and therapeutic treatment of skin sensitization and irritation” (Bristol-Myers Squibb Company, priority 1996, dated 2003).

Assay [1] concerns Balb/c female mice. As to the kind of experiment: Irritation induced by captopril: mouse ear thickness. Type of assay: in vivo. As to the method: (§1) Thirty (30) Balb/c female mice were obtained from Sprague Dawley Labs. A 1.0% (w/v) solution of PAME was prepared in a gel formulation (2.5% HPMC in 75% ethanol). A second solution containing a 2:1 volume ratio of acetone to ethanol was also prepared. A 20% (w/v) solution of captopril and the second solution (sufficient to elicit a strong irritant response), was also prepared. In addition a 1.0% HPMC solution was prepared as a placebo.
(§2) The Group I mice (10 mice) received the second solution and then 10 minutes later the HPMC solution. The positive control mice (10) designated as Group II received the captopril solution to the right ear followed by the HPMC solution. The experimental group of mice (10) (Group III) received the captopril solution to the right ear followed ten minutes later by the PAME solution.
(§3) The thickness of the ears was measured after 2 hours when maximum redness and swelling from the captopril solution were observed.

Assay [2] has as its system Balb/c mice. Put plainly: Counter sensitizer to DNCB: ear swelling after DNCB challenge of sensitized mice. Type of assay: in vivo. As to the method:
(§4) A 1.0% (w/v) solution of phenoxyacetic acid methyl ester (PAME, a compound of Formula I wherein R is methyl) was prepared in a gel formulation (2.5% HPMC in 75% ethanol). The same gel formulation served as a negative control. For sensitization, a 1% (w/v) solution of dinitrochlorobenzene (DNCB) was prepared in acetone.
(§5) Twenty-four (24) Balb/c mice had their back skin shaved. The mice were divided into three equal groups. The first group acted as a negative control and received on day 0 an application of acetone. The second and third groups each received 20 μL of 1% DNCB in acetone on the exposed back skin.
[…] Then, 10 minutes after challenge, the first and second groups received 100 μL of 1% HPMC in 75% ethanol. The third group received 1% of PAME in the HPMC gel.
(§6) Adverse reaction to the challenge with DNCB was determined by measuring the thickness of the mice ears before and after challenge to determine the amount of swelling, and then comparing the degree of swelling for mice treated in accordance with the invention (Group III) with Groups I and Groups II.

The test system of assay [3] is Balb/c female mice. As to the kind of experiment: Irritation induced by phorbol myristate: mouse ear thickness. The settings on record: in vivo. As to the method: as §1, §2, §3
The procedures of Example 4 were repeated except that captopril was replaced with phorbol myristate (12-tetradecanyol-13-phorbol myristic acid) in an amount of 0.1% (w/v) in a 1% HPMC gel. Phenoxyacetic acid was also tested in this protocol.

The subject of assay [4] is Balb/c mice. As to the kind of experiment: Counter sensitizer to oxazolone: ear swelling after challenge of sensitized mice. Format: in vivo. As to the method: as §4, §5
All three groups were challenged on the right ear with 20μL of 1% DNCB in acetone five (5) days after sensitization. Then, 10 minutes after challenge, the first and second groups received 100 μL of 1% HPMC in 75% ethanol. The third group received 1% of PAME in the HPMC gel.
as §6
The procedures of Example 1 were repeated except that the mice were sensitized with a 1% (w/v) solution of oxazolone.

Assay [5] deals with Balb/c female mice. Put plainly: Irritation induced by dinitrochlorobenzene: mouse ear thickness. Type of assay: in vivo. As to the method:
as §1, §2, §3
The procedures of Example 4 were repeated except that captopril was replaced with dinitrochlorobenzene (DNCB) in an amount of 2.0% (w/v) in a 1% HPMC gel.

For assay [6], the system named is Balb/c female mice. Put plainly: Irritation induced by retinoic acid: mouse ear thickness. Format: in vivo. As to the method:
as §1, §2, §3
The procedures of […] were repeated except that captopril was replaced by retinoic acid in an amount of 1% (w/v) in a 1% HPMC gel.

The mark [7] stands for this setting: PAME (2 mg) in HPMC gel + oxazolone (100 μg), 24 hours.

`COC(=O)COc1ccccc1` [PAME, phenoxyacetic acid methyl ester]: the “EAR THICKNESS” value with Balb/c female mice [1] (1.0% PAME gel 10 minutes after 20% captopril solution, 2 hours) was 226 ± 5 MM × 10^−3; in the assay on Balb/c mice [2] (PAME (1 mg) in HPMC gel + DNCB (100 μg), 24 hours, right ear), 240 ± 6 MM × 10^−3; in the assay with Balb/c mice [4] (setting [7]), 278 ± 15 MM × 10^−3; with Balb/c female mice [5] (PAME + DNCB 2.0% (w/v), 2 hours), 249 ± 8 MM × 10^−3; with Balb/c female mice [6] (PAME + retinoic acid 1% (w/v), 2 hours), 237 ± 11 MM × 10^−3. For the same compound, the “% SUPPRESSION” value in the assay on Balb/c female mice [1] (PAME + captopril, 2 hours, vs captopril only) is listed as “≈93%”; with Balb/c mice [2] (PAME (1 mg) in HPMC gel + DNCB (100 μg), 24 hours, vs DNCB only), 62%; with Balb/c mice [4] (PAME (2 mg) in HPMC gel + oxazolone (100 μg), 24 hours, vs oxazolone only), 84%; in the assay with Balb/c female mice [5] (PAME + DNCB, 2 hours, vs DNCB only), 100%; in the assay with Balb/c female mice [6] (PAME + retinoic acid, 2 hours, vs retinoic acid only), 100%. In addition, the “inflammation induced by contact with captopril (in words)” value with Balb/c female mice [1] (mouse, in vivo) is listed as “suppressed inflammation”. For the same compound, the “EAR SWELLING” value amounted to 12 MM × 10^−3 in the assay on Balb/c mice [2] (PAME (1 mg) in HPMC gel + DNCB (100 μg), 24 hours) and 16 MM × 10^−3 with Balb/c mice [4] (setting [7]). The “adverse reaction of the skin induced by sensitization with DNCB (in words)” value in the assay with Balb/c mice [2] (administered alone, prophylactically) was “prevented an adverse reaction of the skin”. Besides, in the assay on Balb/c female mice [3], the “inflammation induced by contact with phorbol myristate (in words)” value is “suppressed inflammation”. The “adverse reactions induced by sensitization with oxazolone (in words)” value in the assay with Balb/c mice [4] (mouse, in vivo) is recorded as “suppressed adverse reactions”. Besides, the “inflammation induced by contact with DNCB (in words)” value in the assay on Balb/c female mice [5] (mouse, in vivo) was “suppressed inflammation”. Besides, the “inflammation induced by retinoic acid (in words)” value in the assay with Balb/c female mice [6] (mouse, in vivo) is recorded as “suppressed inflammation”.
On to `O=C(O)COc1ccccc1` [PHENOXYACETIC ACID, Phenoxyacetic acid], for which the “inflammation induced by contact with phorbol myristate (in words)” value with Balb/c female mice [3] is “suppressed inflammation”.
